According to patent US12570665B2, “Compositions comprising fullerenyl mesochlorin nano-photosensitizers with covalently bound antibiotics and their uses in combination therapy” (priority 2019, dated 2026):

Legend:
E. fecium = conditions: 50 nM, 415 nm irradiation, VCM-resistant and sensitive strains
Procedure: (§1) FIG. 3. (A) aPDT against vancomycin-resistant and sensitive strains of E. fecium (VSE). Log10 survival fractions of E. fecium (10^8 cells/mL) incubated for 30 min with 50-nM concentration of VCM-mPheZn-N5^+ (LC39, see Huang, L., Wang, M., Chiang, L. Y., Hamblin, M. R., et al. Photochem. Photobiol. Sci. 2018, 17, 638-651) by irradiation with increasing exposes of a 415-nm LED light. […] Irradiation was carried out with (C) the radiant exposure of 115 J/cm^2 at 660 nm (LED light, 40 mW/cm^2) and (D) the radiant exposure of 20 J/cm^2 at 405 nm (LED light, 24 mW/cm^2). All data were represented as login survival fractions as a function of both aPDI agent concentration and light wavelength/exposure, where the dashed red line in Panel Cd represents the detection limit of MRSA CFU. […] (E) Concentration dependent aPDI of MRSA (strain IQ0064) by ChlPd-(C70>)N10^+ (LC41) upon illumination at 115 J/cm^2 and 660-nm wavelength (40 mW/cm^2).

MRSA (strain IQ0064) = type: cell-based, Staphylococcus aureus
Procedure: as §1
(§2) Bacterial strains: Two Gram-positive MRSA strains (IQ0064 and IB0004) and one Gram-negative Acinetobacter baumannii strain (AF0004) were studied. All of them are clinical isolates. MRSA IQ0064 was a multidrug-resistant strain isolated from wounded military personnel deployed to Iraq. According to a microbiology test, IQ0064 strain was resistant to ampicillin, cefazolin, cefoxitin, oxacillin, and penicillin. MRSA IB0004 was an isolate from a keratitis patient. A. baumannii AF0004 was a multidrug-resistant strain isolated from wounded military personnel deployed to Afghanistan. AF0004 was resistant to a panel of important antibiotics including amikacin, ampicillin, aztreonam, cefazolin, cefepime, cefoxitin, ceftazidime, ceftriaxone, cefuroxime, ciprofloxacin, gentamicin, imipenem, levofloxacin, meropenem, nitrofurantoin, tetracycline and trimethoprim-sulfamethoxazole.
Light source: Light was delivered topically using a noncoherent light source (LumaCare, Newport Beach, CA) that provided the full spectrum of visible light (400 to 800 nm). The system employed interchangeable filter probes and produced a uniform spot for illumination. We used a 660±15-nm filter probe. The irradiance of 40 mW/cm^2 was used throughout the study. The light power was routinely measured using a laser power meter (Fieldmate; Coherent, Portland, OR).
Antimicrobial photodynamic inactivation (aPDI) of bacteria: Bacterial suspensions were adjusted to 10^8 CFU/mL, inoculated to 96-well plates (200 μL/well), incubated with fullerenes at 6.25, 12.50, 18.75, and 25.00 μM concentrations for 1.0 h and then either left in dark or irradiated with 660 nm light at 115 J/cm^2. At the completion of each stage of illumination, the contents of the wells were well mixed before sampling. Aliquots (30 μL) were taken from each well to determine CFU. The aliquots were serially diluted 10-fold in phosphate-buffered saline (PBS) to give dilutions of 10^1 to 10^5 times in addition to the original concentration; then, 10 μL aliquots of each of the dilutions were streaked horizontally on square BHI plates. Plates were streaked in triplicate and incubated for 24 h at 37° C. in the dark to allow colony formation. Control groups included bacterial cells that were treated with light alone (no fullerene monoadducts added), and cells treated with fullerene monoadducts (no light) as the dark control. Survival fractions were routinely expressed as ratios of CFU of bacterial cells treated with light and fullerene monoadducts, or treated with fullerenes in the absence of light, to CFU of bacteria treated with neither.

MRSA cells = assay: Binding to MRSA cells by confocal microscopy fluorescence imaging; type: cell-based, Staphylococcus aureus; conditions: 405-nm irradiation, red emission 640-780 nm
MRSA = conditions: against MRSA
A. baumannii (AF0004) = conditions: 12.5 μM
Text: as §2, with “AF0004 was resistant to a panel of important antibiotics including amikacin, ampicillin, aztreonam, cefazolin, cefepime, cefoxitin, ceftazidime, ceftriaxone, cefuroxime, ciprofloxacin, gentamicin, imipenem, levofloxacin, meropenem, nitrofurantoin, tetracycline and trimethoprim-sulfamethoxazole.” left out
Light source: Light was delivered topically using a noncoherent light source (LumaCare, Newport Beach, CA) that provided the full spectrum of visible light (400 to 800 nm). […] The light power was routinely measured using a laser power meter (Fieldmate; Coherent, Portland, OR).
Antimicrobial photodynamic inactivation (aPDI) of bacteria: Bacterial suspensions were adjusted to 10^8 CFU/mL, inoculated to 96-well plates (200 μL/well), incubated with fullerenes at 6.25, 12.50, 18.75, and 25.00 μM concentrations for 1.0 h and then either left in dark or irradiated with 660 nm light at 115 J/cm^2. […] Survival fractions were routinely expressed as ratios of CFU of bacterial cells treated with light and fullerene monoadducts, or treated with fullerenes in the absence of light, to CFU of bacteria treated with neither.

3a-hydroxy-3b-vancomycin-15b-methyl-17c-[N,N′,N,N,N,N-hexapropyl-penta(aminoethylene)]amide-[Zn^+2]mesopheophorbide [LC39]
aPDT effect (E. fecium): excellent aPDT effect

CN[C@H](CC(C)C)C(=O)N[C@H]1C(=O)N[C@@H](CC(N)=O)C(=O)N[C@H]2C(=O)N[C@H]3C(=O)N[C@H](C(=O)N[C@H](C(=O)O)c4cc(O)cc(O)c4-c4cc3ccc4O)[C@H](O)c3ccc(c(Cl)c3)Oc3cc2cc(c3O[C@@H]2O[C@H](CO)[C@@H](O)[C@H](O)[C@H]2O[C@H]2C[C@](C)(N)[C@H](O)[C@H](C)O2)Oc2ccc(cc2Cl)[C@H]1O [vancomycin, reference compound]
effect on viability of MRSA cells (MRSA (strain IQ0064); equivalent dose, control, 660 nm and 405 nm (FIGS. 3Ca, 3Da)): negligible effect

3a-hydroxy-3b-aminoethylene-aminoPEGlycolated vancomycin-15b-methyl-13a,17c-di[N,N′,N,N,N,N-hexapropyl-panta(aminoethylene)]amide-mesochlorin [LC40e]
photokilling efficacy on MRSA (MRSA (strain IQ0064); 10-20 μM, 405-nm irradiation, 20 J/cm^2): 5.0 log10 | CFU reduction (photokilling of MRSA) (MRSA (strain IQ0064); 10-20 μM, 660-nm light, 115 J/cm^2): > 6.5 log10 CFU | light mediated killing of MRSA cells (qualitative) (MRSA (strain IQ0064); 405- and 660-nm photoexcitation, up to 20 μM): susceptible to light mediated killing | additional increase in the inactivation of bacteria by the combination of antibiotics and aPDT (MRSA (strain IQ0064); combination versus antibiotic activity alone): 3 log10 CFU | antibiotic activity, CFU killing without red-light irradiation (MRSA (strain IQ0064); without red-light irradiation, bacterium not given, MRSA implied): 4 log10 CFU | red FL emission on pretreated MRSA cells (relative cell affinity) (MRSA cells): significantly enhanced | MIC (MRSA): 2.0 µg/mL | dark toxicity to A. baumannii cells (A. baumannii (AF0004); no light): about 1.5 log10 CFU | CFU reduction (inactivation of A. baumannii CFUs) (A. baumannii (AF0004); red light 660 nm, 115 J/cm^2): > 6 log10 CFU
